# Patent US8138168B1 (Takeda Pharmaceutical Company Limited, priority 2007, dated 2012)
# Target: T1, Recombinant human renin (Homo sapiens, UniProt P00797)
# T1 construct: isolate the active form (residues 67-406); made in house; host or cells: FreeStyle 293-F cells (transient expression of pcDNA3.1(+)/hREN)
# T1 sequence (P00797 67-406): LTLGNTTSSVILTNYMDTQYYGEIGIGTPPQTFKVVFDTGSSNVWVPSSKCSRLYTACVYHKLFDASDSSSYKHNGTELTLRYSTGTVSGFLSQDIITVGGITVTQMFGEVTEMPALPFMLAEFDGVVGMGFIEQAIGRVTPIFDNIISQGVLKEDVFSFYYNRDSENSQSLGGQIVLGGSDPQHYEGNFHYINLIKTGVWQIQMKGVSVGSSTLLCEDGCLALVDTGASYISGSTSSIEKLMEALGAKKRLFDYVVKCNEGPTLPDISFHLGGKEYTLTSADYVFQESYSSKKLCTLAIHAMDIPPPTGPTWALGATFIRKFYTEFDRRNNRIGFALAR
# Assay: In vitro enzymatic activity assay of renin inhibitors (fluorogenic peptide substrate)
# Assay type: biochemical
# Details: for IC50: read-out: IC50 of Exemplified Compounds Against Renin
# Description: Test compounds in varying concentrations may be reacted with recombinant human renin in the presence of substrate, e.g., QXL520-γ-Abu-[…](HiLyteFluo488)-Arg-OH (Anaspec, San Jose, Calif.). […] Inhibition constants (IC50) may be calculated by non-linear curve fitting of the compound concentrations and fluorescence intensities to the standard IC50 equation.
# Solutions of test compounds in varying concentrations mM final concentration) are prepared in dimethyl sulfoxide (DMSO) and then diluted into assay buffer comprising 50 mM Hepes, 1 mM EDTA, 1 mM DTT, 0.1 mg/mL BSA, 0.01% Brij35, pH 7.4. Alternatively, the assay can be performed with a high BSA concentration, wherein the buffer contains an additional 2% BSA.
# Recombinant human renin (3 nM final concentration) is added to the dilutions and pre-incubated with the compounds for 10 minutes at 37° C. […] After pre-incubation, the reaction is initiated with of substrate QXL520-γ-Abu-[…](HiLyteFluo488)-Arg-OH (Anaspec, San Jose, Calif.). The final DMSO in the assay is 5%. The total volume of the reaction mixture is 20 μL, which can be placed on Greiner 384-well small volume plates.
# The fluorescence intensity is determined upon the addition of substrate and determined again after incubation at 37° C. for one hour. The fluorescence intensity of a blank (no inhibition) using vehicle alone is also determined. Renin activity is linearly proportional to the change in fluorescence observed (final-initial).
Compound,IC50 [nM],"Eutomer / distomer designation of the separated stereoisomers (isomers separated by preparative SFC, more or less active isomer as renin inhibitor)"
"COCCCn1c([C@@H]2CCCN(C(=O)C[C@H](N)Cc3ccc(-c4ccn[nH]4)cc3)C2)nc2ccccc21 [Compound 141, (R)-4-(4-(1H-pyrazol-5-yl)phenyl)-3-amino-1-((R)-3-(1-(3-methoxypropyl)-1H-benzo[d]imidazol-2-yl)piperidin-1-yl)butan-1-one]",100 to 1000,–
"COCCCn1c([C@@H]2CCCN(C(=O)C[C@H](N)Cc3ccc(-c4ccc(NC(N)=O)cc4)cc3)C2)nc2ccccc21 [Compound 172, 1-(4′-((R)-2-amino-4-((R)-3-(1-(3-methoxypropyl)-1H-benzo[d]imidazol-2-yl)piperidin-1-yl)-4-oxobutyl)biphenyl-4-yl)urea]",< 100,–
"COCCCn1c([C@@H]2CCCN(C(=O)C[C@H](N)Cc3cccc(Cl)c3)C2)nc2ccccc21 [Compound 79, (R)-3-amino-4-(3-chlorophenyl)-1((R)-3-(1-(3-methoxypropyl)-1H-benzo[d]imidazol-2-yl)piperidin-1-yl)butan-1-one]",100 to 1000,–
"CC(=O)NCCn1c([C@@H]2CCCN(C(=O)C[C@H](N)Cc3ccc(-c4ccc5c(c4)CC(=O)N5)cc3)C2)nc2ccccc21 [Compound 465, N-(2-(2-((R)-1-((R)-3-amino-4-(4-(2-oxoindolin-5-yl)phenyl)butanoyl)piperidin-3-yl)-1H-benzo[d]imidazol-1-yl)ethyl)acetamide]",< 100,–
(R)-3-amino-4-(4-chlorophenyl)-1-((S)-3-hydroxy-3-(1-(3-methoxypropyl)-1H-benzo[d]imidazol-2-yl)piperidin-1-yl)butan-1-one [Compound 247],–,Eutomer
"COCCCn1c([C@@H]2CCCN(C(=O)C[C@H](N)Cc3ccc4ccccc4c3)C2)nc2cccc(C)c21 [Compound 107, (R)-3-Amino-1-((R)-3-(1-(3-methoxypropyl)-7-methyl-1H-benzo[d]imidazol-2-yl)piperidin-1-yl)-4-(naphthalen-2-yl)butan-1-one]",> 1000,–
"COCCCn1c([C@@H]2CCCN(C(=O)[C@@H]3CN(C(=O)NC4CCCC4)C[C@H]3N)C2)nc2ccccc21 [Compound 399, (3S,4R)-3-amino-N-cyclopentyl-4-((R)-3-(1-(3-methoxypropyl)-1H-benzo[d]imidazol-2-yl)piperidine-1-carbonyl)pyrrolidine-1-carboxamide]",> 1000,–
"COCCCn1c([C@@H]2CCCN(C(=O)[C@@H]3CN(C(=O)c4cccc(Cl)c4)C[C@H]3N)C2)nc2ccccc21 [Compound 375, ((3R,4S)-4-amino-1-(3-chlorobenzoyl)pyrrolidin-3-yl)((R)-3-(1-(3-methoxypropyl)-1H-benzo[d]imidazol-2-yl)piperidin-1-yl)methanone]",100 to 1000,–
CC(=O)NCCn1c([C@@H]2CCCN(C(=O)C[C@H](N)Cc3ccc(-c4ccc5c(c4)NC(=O)CO5)cc3)C2)nc2ccccc21 [Compound 469],100 to 1000,–
"CC(=O)NCCn1c([C@@H]2CCCN(C(=O)C[C@H](N)Cc3ccc(-c4ccc(O)nc4)cc3)C2)nc2c(C)cccc21 [Compound 473, N-(2-(2-((R)-1-((R)-3-amino-4-(4-(6-hydroxypyridin-3-yl)phenyl)butanoyl)piperidin-3-yl)-4-methyl-1H-benzo[d]imidazol-1-yl)ethyl)acetamide]",100 to 1000,–
"COCCCn1c([C@@H]2CCCN(C(=O)C[C@H](N)Cc3ccc(-c4cccc(OC)c4)cc3)C2)nc2ccccc21 [Compound 158, (R)-3-Amino-4-(3′-methoxybiphenyl-4-yl)-1-((R)-3-(1-(3-methoxypropyl)-1H-benzo[d]imidazol-2-yl)piperidin-1-yl)butan-1-one]",< 100,–
"COCCCn1c([C@@H]2CCCN(C(=O)C[C@H](N)CNC(=O)Nc3cc(OC)ccc3OC)C2)nc2ccccc21 [Compound 273, 1-((S)-2-amino-4-((R)-3-(1-(3-methoxypropyl)-1H-benzo[d]imidazol-2-yl)piperidin-1-yl)-4-oxobutyl)-3-(2,5-dimethoxyphenyl)urea]",100 to 1000,–
COCCCn1c([C@@H]2CCCN(C(=O)C[C@H](N)Cc3ccc(-n4c(=O)oc5ccccc54)cc3)C2)nc2ccccc21 [Compound 211],< 100,–
"COCCCn1c([C@@H]2CCCN(C(=O)C[C@H](N)Cc3ccc(-c4ccc(C(=O)NCCOC(C)C)cc4)cc3)C2)nc2ccccc21 [Compound 179, 4′-((R)-2-amino-4-((R)-3-(1-(3-methoxypropyl)-1H-benzo[d]imidazol-2-yl)piperidin-1-yl)-4-oxobutyl)-N-(2-isopropoxyethyl)biphenyl-4-carboxamide]",< 100,–
"COCCCn1c([C@@H]2CCCN(C(=O)C[C@H](N)CNC(=O)Nc3cccc(OC)c3)C2)nc2ccccc21 [Compound 254, 1-((S)-2-amino-4-((R)-3-(1-(3-methoxypropyl)-1H-benzo[d]imidazol-2-yl)piperidin-1-yl)-4-oxobutyl)-3-(3-methoxyphenyl)urea]",< 100,–
"COCCCn1c([C@@H]2CCCN(C(=O)C[C@H](N)Cc3ccc(Br)cc3)C2)nc2ccccc21 [Compound 91, (R)-3-amino-4-(4-bromophenyl)-1((R)-3-(1-(3-methoxypropyl)-1H-benzo[d]imidazol-2-yl)piperidin-1-yl)butan-1-one]",100 to 1000,–
"COCCCn1c([C@@H]2CCCN(C(=O)[C@@H]3CN(C(=O)c4ccc(Cl)c(Cl)c4)C[C@H]3N)C2)nc2ccccc21 [Compound 365, ((3R,4S)-4-amino-1-(3,4-dichlorobenzoyl)pyrrolidin-3-yl)((R)-3-(1-(3-methoxypropyl)-1H-benzo[d]imidazol-2-yl)piperidin-1-yl)methanone]",100 to 1000,–
"COCCCn1c([C@@H]2CCCN(C(=O)C[C@H](N)Cc3ccc(-n4c(=O)[nH]c5cc(C)c(C)cc54)cc3)C2)nc2ccccc21 [Compound 219, 1-(4-((R)-2-amino-4-((R)-3-(1-(3-methoxypropyl)-1H-benzo[d]imidazol-2-yl)piperidin-1-yl)-4-oxobutyl)phenyl)-5,6-dimethyl-1H-benzo[d]imidazol-2(3H)-one]",< 100,–
"COCCCn1c([C@@H]2CCCN(C(=O)[C@@H]3CN(C(=O)c4ccc5ccccc5c4)C[C@H]3N)C2)nc2ccccc21 [Compound 362, ((3R,4S)-1-(2-naphthoyl)-4-aminopyrrolidin-3-yl)((R)-3-(1-(3-methoxypropyl)-1H-benzo[d]imidazol-2-yl)piperidin-1-yl)methanone]",100 to 1000,–
"COCCCn1c([C@@H]2CCCN(C(=O)[C@@H]3CN(S(=O)(=O)c4ccccc4C(F)(F)F)C[C@H]3N)C2)nc2ccccc21 [Compound 402, ((3R,4S)-4-amino-1-(2-(trifluoromethyl)phenylsulfonyl)pyrrolidin-3-yl)((R)-3-(1-(3-methoxypropyl)-1H-benzo[d]imidazol-2-yl)piperidin-1-yl)methanone]",> 1000,–
"COCCCn1c([C@@H]2CCCN(C(=O)C[C@H](N)Cc3ccc(-c4ccnc(O)c4)cc3)C2)nc2ccccc21 [Compound 437, (R)-3-amino-4-(4-(2-hydroxypyridin-4-yl)phenyl)-1-((R)-3-(1-(3-methoxypropyl)-1H-benzo[d]imidazol-2-yl)piperidin-1-yl)butan-1-one]",< 100,–
"COCCCn1c([C@@H]2CCCN(C(=O)[C@@H]3CN(C(=O)c4ccccc4)C[C@H]3N)C2)nc2ccccc21 [Compound 385, ((3R,4S)-4-amino-1-benzoylpyrrolidin-3-yl)((R)-3-(1-(3-methoxypropyl)-1H-benzo[d]imidazol-2-yl)piperidin-1-yl)methanone]",> 1000,–
"COCCCn1c([C@@H]2CCCN(C(=O)C[C@H](N)CNC(=O)c3ccc(-c4cccc(Cl)c4Cl)o3)C2)nc2ccccc21 [Compound 277, N-((S)-2-amino-4-((R)-3-(1-(3-methoxypropyl)-1H-benzo[d]imidazol-2-yl)piperidin-1-yl)-4-oxobutyl)-5-(2,3-dichlorophenyl)furan-2-carboxamide]",100 to 1000,–
"COCCCn1c([C@@H]2CCCN(C(=O)C[C@H](N)Cc3ccc(-c4ccco4)cc3)C2)nc2ccccc21 [Compound 146, (R)-3-Amino-4-(4-(furan-2-yl)phenyl)-1-((R)-3-(1-(3-methoxypropyl)-1H-benzo[d]imidazol-2-yl)piperidin-1-yl)butan-1-one]",< 100,–
"CC(=O)NCCn1c([C@@H]2CCCN(C(=O)C[C@H](N)Cc3ccc(-c4ccc5c(c4)OCCN5C)cc3)C2)nc2c(C)cccc21 [Compound 475, N-(2-(2-((R)-1-((R)-3-amino-4-(4-(4-methyl-3,4-dihydro-2H-benzo[b][1,4]oxazin-7-yl)phenyl)butanoyl)piperidin-3-yl)-4-methyl-1H-benzo[d]imidazol-1-yl)ethyl)acetamide]",100 to 1000,–
